Experimental data: US7696251B2, “Method for inhibiting neuronal cell death induced by oxidative glutamate toxicity” (Incorporated National University Iwate University, priority 2007, dated 2010)
Like-named read-outs stand apart in the source and are kept apart here.

Columns and labels:
HT22 cells [1] = assay: Oxidative glutamate toxicity in HT22 cells, MTT assay; type: cell-based, mouse; settings: for IC50: Mus musculus, read-out: concentration of half inhibition (IC50) of oxidative glutamate toxicity
Experimental: (§1) DPPD and its derivatives, shown in FIG. 1, were obtained from Ouchi Shinko Chemical Industrial (Tokyo, Japan). The compounds were dissolved in dimethyl sulfoxide (DMSO). The final concentration of DMSO in the culture medium was 0.1%. TNFα, actinomycin D (AcD), XA, XO, glutamate and H2O2 were purchased from Sigma (St. Louis, Mo., USA). HT22 cells were cultured and MTT assays were performed as described previously. Experiments presented here were repeated at least 3 times with 4 samples for each determination. The data are presented as the mean ±SD (for in vitro experiments). In order to examine the neuroprotective effects of DPPD, we employed the following 4 death-inducing agents: 1) glutamate (oxidative stress, transcription-dependent), 2) TNFα (receptor-mediated apoptosis, transcription-independent), 3) H2O2 (oxidative stress, transcription-independent) and 4) XA+XO (oxidative stress, transcription-independent). In FIG. 1, squares, DPPD; circles, D1; triangles, D2. […] HT22 cells were seeded into 24-well plates at a density of 4×10^4 cells/cm^2. After a 5-hr incubation, various concentrations of the compounds were added. One hour later, 5 mM of glutamate was added to the cultures, and 20 h thereafter, the cells were subjected to the MTT assay. The values, which represent the percentage of the control MTT activity, are means ±S.D.s (n=4).
In order to determine whether the inhibition was substantially specific to cell death by oxidative glutamate toxicity, the effects of these compounds on the cell death induced by various stimuli were examined. Adverting to FIGS. 2A, 2B, 2C and 2D, 2HT22 cells were seeded into 24-well plates at a density of 4×10^4 cells/cm^2. After a 5-hr incubation, various concentrations of DPPD were added. One hour later, the cells were treated for 20 h with glutamate (A), TNFα in the presence of 0.1 μg/ml AcD (B), H2O2 (C) and XO in the presence of 0.1 mg/ml of XA (D) and then were subjected to the MTT assay. The values, which represent the percentage of the control MTT activity, are means ±S.D.s (n=4).

HT22 cells [2] = assay: TNFα-induced cell death of HT22 cells (with AcD), MTT assay; type: cell-based, mouse; settings: 0.1 or 1.0 ng/ml TNFα with 0.1 μg/ml AcD, 20 h, MTT (FIG. 2B)
Experimental: as §1, with “(n=4). […]” for “(n=4).”

HT22 cells [3] = assay: H2O2-induced cell death of HT22 cells, MTT assay; type: cell-based, mouse; settings: 30 or 50 μM H2O2, 20 h, MTT (FIG. 2C)
Experimental: as §1, with “(n=4). […]” for “(n=4).”

HT22 cells [4] = assay: XA+XO-induced cell death of HT22 cells, MTT assay; type: cell-based, mouse; settings: 15 or 30 mU/ml XO with 0.1 mg/ml XA, 20 h, MTT (FIG. 2D)
Experimental: as §1, with “(n=4). […]” for “(n=4).”

PC12 cells = settings: DPPD at μM concentrations; associated with decrease in intracellular ROS levels [13]; cited from earlier work
[5] = HT-22, HT22 cells, 5 mM glutamate, 20 h, MTT assay

Compound	IC50 (HT22 cells [1]; HT-22, 20 h)	IC50 (HT22 cells [1]; [5])	also measured
Nc1ccc(N)cc1 [D3]	0.879 µM		
Nc1ccccc1 [D4]		94 µM	
c1ccc(Nc2ccc(Nc3ccccc3)cc2)cc1 [DPPD, N,N′-Diphenyl-p-phenylenediamine]	0.0077 µM		protection against death induced by glutamate (HT22 cells [1]; DPPD at 1-10 nM, 5 or 10 mM glutamate, 20 h, MTT (FIG. 2A)): almost completely blocked; protection against TNFα-induced neuronal death (HT22 cells [2]): substantially ineffective; protection against H2O2-induced cell death (HT22 cells [3]): did not substantially protect; protection against XA+XO-induced cell death (HT22 cells [4]): did not substantially protect; protection of PC12 cells against lipid peroxide (PC12 cells): protected
CC(C)Nc1ccc(Nc2ccccc2)cc1 [D1]	0.0054 µM		
Nc1ccc(Nc2ccccc2)cc1 [D2]		0.026 µM	
